A word on the pEC50: it is −log10 of the EC50, conventionally taken in molar units. As a reminder, the pIC50 is −log10 of the IC50, conventionally taken in molar units.

Here are results for 4 molecules from article PMC4513954 (Journal of medicinal chemistry, 2015).

pEC50, pIC50: −log10 of the molar value. Read-outs that look alike come from different tables or passages of the source.

Data set [1] is described as follows: Toxicity against mammalian cells. It counts as cell-based.
The test system of data set [2] is undecaprenyl diphosphate synthase (UPPS). Particulars: read-out: UPPS IC50; cited from earlier work.
Data set [3] has as its system S. aureus. Conditions: S. aureus in vitro; cited from earlier work.
The subject of data set [4] is MRSA strain (S. aureus). Particulars: cited from earlier work.
Data set [5] concerns Yersinia pestis. Conditions: cited from earlier work.
Data set [6] relates to Bacillus anthracis. Particulars: cited from earlier work.
The target of data set [7] is undecaprenyl diphosphate synthase (UPPS). In words: UPPS inhibition. Conditions: read-out: UPPS IC50; both UPPS enzymes, approximate. In kind it is biochemical.
The test system of data set [8] is E. coli (K12). Briefly: E. coli cell growth inhibition. Conditions: Escherichia coli, read-out: E. coli EC50, cell growth inhibition, E. coli K12.

Regarding `O=C(Nc1cccc(C2=NCCN2)c1)c1ccc(-c2ccc(C(=O)Nc3cccc(C4=NCCN4)c3)cc2)cc1` [Compound 1, N4,N4'-bis(3-(4,5-dihydro-1H-imidazol-2-yl)phenyl)-[1,1'-biphenyl]-4,4'-bicarboxamide], in data set [1], the pEC50 is under 4.00. Further, in data set [2], the pIC50 is about 7.00. Also, the MIC in data set [3] was ~ 250 ng/mL. For the same molecule, the adverse side-effects result in data set [4] (S. aureus mouse model of infection) was “no adverse side-effects”. For the same molecule, the mice survived in data set [4] (i.p. infection model with a MRSA strain) was 20/20.
Turning to `c1cc2cc(-c3ccc(-c4cc5ccc(C6=NCCN6)cc5[nH]4)cc3)[nH]c2cc1C1=NCCN1` [Compound 7, 1,4-bis(6-(4,5-dihydro-1H-imidazol-2-yl)-1H-indol-2-yl)benzene], the “efficacy in mice model of infection” value in data set [5] and in data set [6] was “effective” in each case.
As to `O=C(Nc1cccc(C2=NCCCN2)c1)c1ccc(-c2ccc(C(=O)Nc3cccc(C4=NCCCN4)c3)cc2)cc1` [Compound 10, N4,N4'-bis(3-(1,4,5,6-tetrahydropyrimidin-2-yl)phenyl)biphenyl-4,4'-dicarboxamide], the pIC50 in data set [7] is about 5.30. Further, the negative logarithm of the EC50 (pEC50) in data set [8] was over 6.00.
Regarding `C(=C\c1cc2ccc(C3=NCCN3)cc2[nH]1)/c1cc2ccc(C3=NCCN3)cc2[nH]1.Cl` [Compound 8], the “efficacy in mice model of infection” value in data set [5] and in data set [6] was “effective” each time.
